Measured values: the NIST ThermoML archive (doi:10.1021/je050050p)
± gives the expanded uncertainty stated by the source.

Experiment: xn = mol fraction of the nth substance listed
Details: Liquid, Vibrating tube method

`CN(C)C=O` [dimethylformamide] + O=C=O gave a mass density (352.87 K, 13027 kPa, x2 = 0.4268) of 908.06 ± 0.42 kg/m3, a mass density (352.87 K, 13995 kPa, x2 = 0.4268) of 909.43 ± 0.42 kg/m3 and a mass density (352.87 K, 14004 kPa, x2 = 0.2876) of 910.39 ± 0.42 kg/m3. The mass density (352.87 K, 15002 kPa, x2 = 0.4268) was 910.84 ± 0.42 kg/m3, the mass density (352.87 K, 15013 kPa, x2 = 0.2876) was 911.48 ± 0.42 kg/m3 and the mass density (352.87 K, 16013 kPa, x2 = 0.2876) was 912.56 ± 0.42 kg/m3. The mass density (352.87 K, 16029 kPa, x2 = 0.4268) was 912.27 ± 0.42 kg/m3, the mass density (352.87 K, 17030 kPa, x2 = 0.4268) was 913.63 ± 0.42 kg/m3 and the mass density (352.87 K, 17044 kPa, x2 = 0.2876) was 913.64 ± 0.42 kg/m3. It also gave a mass density (352.87 K, 18010 kPa, x2 = 0.4268) of 914.96 ± 0.42 kg/m3, a mass density (352.87 K, 18012 kPa, x2 = 0.2876) of 914.66 ± 0.42 kg/m3 and a mass density (352.87 K, 19003 kPa, x2 = 0.4268) of 916.29 ± 0.42 kg/m3. The mass density (352.87 K, 19015 kPa, x2 = 0.2876) was 915.7 ± 0.42 kg/m3, the mass density (352.87 K, 20024 kPa, x2 = 0.2876) was 916.74 ± 0.42 kg/m3 and the mass density (352.87 K, 20032 kPa, x2 = 0.4268) was 917.62 ± 0.42 kg/m3. For the same molecule, the mass density (352.87 K, 21004 kPa, x2 = 0.2876) was 917.74 ± 0.42 kg/m3, the mass density (352.87 K, 21047 kPa, x2 = 0.4268) was 918.93 ± 0.42 kg/m3 and the mass density (352.87 K, 22005 kPa, x2 = 0.4268) was 920.15 ± 0.42 kg/m3. For the same molecule, the mass density (352.87 K, 22030 kPa, x2 = 0.2876) was 918.79 ± 0.42 kg/m3, the mass density (352.87 K, 23001 kPa, x2 = 0.4268) was 921.41 ± 0.42 kg/m3 and the mass density (352.87 K, 23027 kPa, x2 = 0.2876) was 919.77 ± 0.42 kg/m3. For the same molecule, the mass density (352.87 K, 24014 kPa, x2 = 0.4268) was 922.68 ± 0.42 kg/m3, the mass density (352.87 K, 24021 kPa, x2 = 0.2876) was 920.77 ± 0.42 kg/m3 and the mass density (352.87 K, 25022 kPa, x2 = 0.2876) was 921.74 ± 0.42 kg/m3. For the same molecule, the mass density (352.87 K, 25024 kPa, x2 = 0.4268) was 923.93 ± 0.43 kg/m3, the mass density (362.68 K, 13997 kPa, x2 = 0.6235) was 842.98 ± 0.45 kg/m3 and the mass density (362.68 K, 15019 kPa, x2 = 0.6235) was 847.62 ± 0.45 kg/m3. It also gave a mass density (362.68 K, 16021 kPa, x2 = 0.6235) of 851.83 ± 0.45 kg/m3, a mass density (362.68 K, 16992 kPa, x2 = 0.6235) of 855.82 ± 0.5 kg/m3 and a mass density (362.68 K, 18022 kPa, x2 = 0.6235) of 859.78 ± 0.46 kg/m3. For the same molecule, the mass density (362.68 K, 19000 kPa, x2 = 0.6235) was 863.4 ± 0.46 kg/m3, the mass density (362.68 K, 20047 kPa, x2 = 0.6235) was 867.1 ± 0.46 kg/m3 and the mass density (362.68 K, 21057 kPa, x2 = 0.6235) was 870.49 ± 0.45 kg/m3. It also gave a mass density (362.68 K, 22005 kPa, x2 = 0.6235) of 873.58 ± 0.45 kg/m3, a mass density (362.68 K, 22981 kPa, x2 = 0.6235) of 876.69 ± 0.45 kg/m3 and a mass density (362.68 K, 24005 kPa, x2 = 0.6235) of 879.78 ± 0.46 kg/m3. The mass density (362.68 K, 24998 kPa, x2 = 0.6235) was 882.71 ± 0.46 kg/m3, the mass density (362.73 K, 18005 kPa, x2 = 0.9311) was 641.86 ± 0.66 kg/m3 and the mass density (362.73 K, 19024 kPa, x2 = 0.9311) was 662.81 ± 0.64 kg/m3. For the same molecule, the mass density (362.73 K, 20021 kPa, x2 = 0.9311) was 680.44 ± 0.61 kg/m3, the mass density (362.73 K, 21028 kPa, x2 = 0.9311) was 696.02 ± 0.6 kg/m3 and the mass density (362.73 K, 22008 kPa, x2 = 0.9311) was 709.54 ± 0.58 kg/m3. The mass density (362.73 K, 23017 kPa, x2 = 0.9311) was 722.12 ± 0.57 kg/m3, the mass density (362.73 K, 24029 kPa, x2 = 0.9311) was 733.65 ± 0.57 kg/m3 and the mass density (362.73 K, 25019 kPa, x2 = 0.9311) was 744.01 ± 0.56 kg/m3. For the same molecule, the mass density (362.75 K, 8032 kPa, x2 = 0.2876) was 891.2 ± 0.41 kg/m3, the mass density (362.75 K, 9018 kPa, x2 = 0.2876) was 892.47 ± 0.41 kg/m3 and the mass density (362.75 K, 9986 kPa, x2 = 0.2876) was 893.65 ± 0.42 kg/m3. The mass density (362.75 K, 10994 kPa, x2 = 0.2876) was 894.89 ± 0.42 kg/m3, the mass density (362.75 K, 11002 kPa, x2 = 0.4268) was 890.57 ± 0.42 kg/m3 and the mass density (362.75 K, 12000 kPa, x2 = 0.2876) was 896.09 ± 0.42 kg/m3. For the same molecule, the mass density (362.75 K, 12008 kPa, x2 = 0.4268) was 892.17 ± 0.42 kg/m3, the mass density (362.75 K, 13010 kPa, x2 = 0.4268) was 893.74 ± 0.43 kg/m3 and the mass density (362.75 K, 13037 kPa, x2 = 0.2876) was 897.35 ± 0.42 kg/m3. The mass density (362.75 K, 14000 kPa, x2 = 0.4268) was 895.32 ± 0.43 kg/m3, the mass density (362.75 K, 14023 kPa, x2 = 0.2876) was 898.48 ± 0.42 kg/m3 and the mass density (362.75 K, 15027 kPa, x2 = 0.4268) was 896.84 ± 0.43 kg/m3. For the same molecule, the mass density (362.75 K, 15039 kPa, x2 = 0.2876) was 899.66 ± 0.42 kg/m3, the mass density (362.75 K, 16011 kPa, x2 = 0.2876) was 900.77 ± 0.42 kg/m3 and the mass density (362.75 K, 16015 kPa, x2 = 0.4268) was 898.33 ± 0.43 kg/m3. For the same molecule, the mass density (362.75 K, 17017 kPa, x2 = 0.4268) was 899.81 ± 0.43 kg/m3, the mass density (362.75 K, 17019 kPa, x2 = 0.2876) was 901.92 ± 0.42 kg/m3 and the mass density (362.75 K, 18012 kPa, x2 = 0.2876) was 903.04 ± 0.42 kg/m3. The mass density (362.75 K, 18013 kPa, x2 = 0.4268) was 901.24 ± 0.43 kg/m3, the mass density (362.75 K, 19006 kPa, x2 = 0.2876) was 904.14 ± 0.42 kg/m3 and the mass density (362.75 K, 19024 kPa, x2 = 0.4268) was 902.72 ± 0.43 kg/m3. For the same molecule, the mass density (362.75 K, 20028 kPa, x2 = 0.4268) was 904.14 ± 0.43 kg/m3, the mass density (362.75 K, 20035 kPa, x2 = 0.2876) was 905.27 ± 0.42 kg/m3 and the mass density (362.75 K, 20994 kPa, x2 = 0.2876) was 906.3 ± 0.42 kg/m3. For the same molecule, the mass density (362.75 K, 21039 kPa, x2 = 0.4268) was 905.51 ± 0.43 kg/m3, the mass density (362.75 K, 22014 kPa, x2 = 0.4268) was 906.89 ± 0.43 kg/m3 and the mass density (362.75 K, 22029 kPa, x2 = 0.2876) was 907.43 ± 0.42 kg/m3. It also gave a mass density (362.75 K, 23004 kPa, x2 = 0.2876) of 908.45 ± 0.42 kg/m3, a mass density (362.75 K, 23027 kPa, x2 = 0.4268) of 908.24 ± 0.44 kg/m3 and a mass density (362.75 K, 24034 kPa, x2 = 0.2876) of 909.57 ± 0.42 kg/m3. For the same molecule, the mass density (362.75 K, 25002 kPa, x2 = 0.2876) was 910.55 ± 0.43 kg/m3, the mass density (362.79 K, 18033 kPa, x2 = 0.8091) was 777.33 ± 0.83 kg/m3 and the mass density (362.79 K, 19005 kPa, x2 = 0.8091) was 784.9 ± 0.51 kg/m3. It also gave a mass density (362.79 K, 20003 kPa, x2 = 0.8091) of 792.49 ± 0.5 kg/m3, a mass density (362.79 K, 21014 kPa, x2 = 0.8091) of 799.75 ± 0.5 kg/m3 and a mass density (362.79 K, 22017 kPa, x2 = 0.8091) of 806.5 ± 0.5 kg/m3. For the same molecule, the mass density (362.79 K, 23043 kPa, x2 = 0.8091) was 813.1 ± 0.5 kg/m3, the mass density (362.79 K, 24052 kPa, x2 = 0.8091) was 819.28 ± 0.49 kg/m3 and the mass density (362.79 K, 25083 kPa, x2 = 0.8091) was 825.05 ± 0.51 kg/m3.
